From ChEMBL document CHEMBL4665694, “Integrating the Impact of Lipophilicity on Potency and Pharmacokinetic Parameters Enables the Use of Diverse Chemical Space during Small Molecule Drug Optimization” (J Med Chem, 2020) come the findings set out here.

What all share (format): ADME
Data set [1] can be described thus: Unbound volume of distribution at steady state in human.
Data set [2] can be described thus: Clearance in human.
Data set [3] can be described thus: Fraction unbound in human.
Data set [4] is described as follows: Half life in human.
Data set [5] is described as follows: Volume of distribution at steady state in human. The conditions noted are these: read-out: Vdss.
The nature of data set [6]: AUC in human administered as single dose.
Data set [7] can be described thus: Unbound AUC in human administered as single dose.
The nature of data set [8]: Unbound clearance in human.
Data set [9] in a line: Unbound AUC at steady state in human administered as single dose.
Data set [10] can be described thus: AUC at steady state in human administered as single dose.

For orientation: clearance means the rate of elimination divided by the concentration. A high value points to a high capacity for elimination. Usually fraction unbound stands for free concentration divided by total concentration. Read a low fraction unbound as extensive binding. One may read the half-life as how long it takes for the measured level to halve. The low end stands for rapid decline, the high end for slow decline. The AUC is the area under the concentration-time curve, a measure of exposure. A lower AUC goes with low exposure. The compound `OC(Cn1cncn1)(Cn1cncn1)c1ccc(F)cc1F` [FLUCONAZOLE] yielded a fVdss in [1] of 1 L/kg. Moreover, the clearance in [2] was determined as 0.054 L/h/kg. The fraction unbound in [3] was 0.9. The half-life in [4] was 32 h. In addition, the Vd in data set [5] was 0.9 L/kg. Besides, the AUC in data set [6] was 100 µg·h/mL. This compound also registered a fAUC in data set [7] of 90 µg·h/mL. In data set [8], this compound displayed a CL free of 0.06 L/h/kg.

For `CCC(C)n1ncn(-c2ccc(N3CCN(c4ccc(OCC5COC(Cn6cncn6)(c6ccc(Cl)cc6Cl)O5)cc4)CC3)cc2)c1=O` (stereo unspecified) [ITRACONAZOLE], the fVdss in data set [1] is > 5000 L/kg. Besides, the clearance in data set [2] is 0.324 L/h/kg. The same compound returned a fAUC in [9] of 0.05 µg·h/mL. In addition, the unbound share (fraction unbound) in [3] was ≤ 0.002. Besides, the half-life in data set [4] was 23 h. Further, in [5], the Vd was found to be 11 L/kg. In addition, in data set [10], the area under the curve (AUC) worked out at 23 µg·h/mL. Moreover, the CL free in data set [8] was > 162 L/h/kg.
